Experiment [1] has as its system immunosuppressant activity. Briefly: Immunosuppressant activity (general statement). The conditions noted are these: result in words. It counts as in vivo.
For a further experiment, the system named is T. rubrum. Briefly: Agar dilution antifungal assay, Trichophyton rubrum. It counts as cell-based, Trichophyton rubrum (ATCC No. 10218 and 14001). The settings on record: for MIC: Trichophyton rubrum, read-out: Parts Per Million Inhibitions, T. rubrum. How it is done: (§1) Various compounds of this invention display antifungal and anti-yeast activity.
(§2) In Table IX below are listed the antifungal activity of a number of compounds encompassed in the present invention. These were determined by the agar dilution method as described in Chapters 2 and 3 of Methods in Microbiology, Vol. 7B, edited by J. R. Norris and D. W. Ribbons, Academic Press, New York, 1972.
A general note: In agar dilution the substance is mixed into plates at graded concentrations.

The subject of a further experiment is Rat Paw Edema. Briefly: Rat paw edema assay, local administration. The experiment is classed as in vivo. The settings on record: injected directly into paw, carrageenan. The protocol: The anti-inflammatory activity of representative compounds of this invention was determined by the rat paw edema assay both by local administration (Table XI below) and by oral dosing (Table XII below). For the oral dosing, the procedure of C. A. Winter, E. A. Risley and G. W. Nuss, Proc. Soc. Exp. Biol. Med. 111, 544 (1962) was employed with measurement taken four hours after the drug was administered. The local administration tests were carried out similarly except the irritant (carrageenan) and the test compound were injected simultaneously at time zero.
Tables XI and XII report the anti-inflammatory activity of the compounds tested as % difference in the edema or swelling as compared with the control. These Tables also give the response in many instances of more than one dose level of the same drug.

The next experiment relates to T. mentagrophytes. Briefly: Agar dilution antifungal assay, Trichophyton mentagrophytes. The experiment is classed as cell-based, Trichophyton mentagrophytes (ATCC No. 8757 and 9129). The protocol: as §1, §2
Another experiment relates to T. ajelloi. Nature of the experiment: Agar dilution antifungal assay, Trichophyton ajelloi. It counts as cell-based. The protocol:
as §1, §2

From patent publication US4200750A, “4-Substituted imidazo [1,2-a]quinoxalines” (Westwood Pharmaceuticals Inc., priority 1977, dated 1980) come the findings set out here.

Molecules are shown by their SMILES. In brackets after ≈: the same amount, converted by molar mass.

Turning to `c1ccc2c(c1)ncc1nccn12` [Compound 109, imidazo[1,2-a]quinoxaline], the immunosuppressant activity result in experiment [1] is given as “lacks immunosuppressant activity”.
On to `CCCCc1nc2ccccc2n2ccnc12` [Compound 113], for which the MIC with T. rubrum worked out at 16 µg/mL (≈ 71 µM).
For `CCCCCc1nc2ccccc2n2ccnc12` [Compound 114], in the experiment on Rat Paw Edema, the “% Difference from Control (edema), local administration, 10 μg” value was -30.0%.
Take `CCCCCCCCc1nc2ccccc2n2ccnc12` [Compound 117]: the MIC in the experiment with T. rubrum is 8 µg/mL (≈ 28.4 µM); in the experiment with T. mentagrophytes (Trichophyton mentagrophytes, read-out: Parts Per Million Inhibitions, T. mentagrophytes) it was 16 µg/mL (≈ 56.9 µM); in the experiment with T. ajelloi (Arthroderma uncinatum, read-out: Parts Per Million Inhibitions, T. ajelloi), 16 µg/mL (≈ 56.9 µM).
On to `c1ccc(-c2nc3ccccc3n3ccnc23)cc1` [Compound 131, 4-phenylimidazo[1,2-a]quinoxaline], for which the immunosuppressant activity entry in experiment [1] is on record as “only minor activity”.
Take `Clc1cccc(Nc2nc3ccccc3n3ccnc23)c1` [Compound 179]: the “Parts Per Million Inhibitions, T. rubrum” value in the experiment on T. rubrum stood at 100 Parts Per Million. The “Parts Per Million Inhibitions, T. mentagrophytes” value with T. mentagrophytes came to 100 Parts Per Million. Further, the “Parts Per Million Inhibitions, T. ajelloi” value in the experiment on T. ajelloi was 100 Parts Per Million.
